Our source for the IC50 values is patent US7211572B2 (Japan Tobacco Inc., priority 2003, dated 2007).

Counter-ions that a name gives are not always drawn. Some results are limits rather than exact numbers.

Usually IC50 stands for the concentration that gives 50% inhibition.

In this assay the target is T1, HIV integrase (Human immunodeficiency virus type 1 group M subtype B, UniProt P12497, F1332H).
T1 construct: HIV integrase full length gene; made in house; host or cells: Escherichia coli BL21(DE3), plasmid pET21a-INH
As to the kind of experiment: Determination of enzyme (HIV integrase) inhibitory activity. The class given is biochemical. The note with it: recombinant HIV integrase (F185H), strand transfer ELISA, absorbance at 450 nm. An outline of the steps:
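Full-length integrase with F185H, expressed in E. coli and purified, was reacted for 60 min at 37 °C with compound and biotinylated donor DNA bound to streptavidin plates. Target DNA was added for 10 min, then anti-digoxigenin-peroxidase detection at A450; IC50 from % inhibition versus enzyme-free blank.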
For the compound `CCC(C)(C)C(=O)c1cn2c(c(O)c1=O)C(=O)N(Cc1cccc(Cl)c1)CC2` [Example 362, 2-(3-chlorobenzyl)-7-(2,2-dimethylbutyryl)-9-hydroxy-3,4-dihydro-2H-pyrido[1,2-a]pyrazine-1,8-dione], the IC50 lay within 10 to 100 nM.

For `O=C(Nc1cn2c(c(O)c1=O)C(=O)N(Cc1cccc(Cl)c1)CC2)c1ccncc1` [Example 346, N-[2-(3-chlorobenzyl)-9-hydroxy-1,8-dioxo-1,3,4,8-tetrahydro-2H-pyrido[1,2-a]pyrazin-7-yl]isonicotinamide hydrochloride], the IC50 was 10 to 100 nM.

For `CN(C)C(=O)Nc1cn2ccn(Cc3cccc(Cl)c3)c(=O)c2c(O)c1=O` [Example 262, 3-[2-(3-chlorobenzyl)-9-hydroxy-1,8-dioxo-1,8-dihydro-2H-pyrido[1,2-a]pyrazin-7-yl]-1,1-dimethylurea], the IC50 was < 10 nM.

As for `O=C(NC(CCc1ccccc1)c1ccccc1)c1cn2c(c(O)c1=O)C(=O)N(Cc1cccc(Cl)c1)CC2` (stereo not drawn) [Example 334, N-(1,3-diphenylpropyl)-2-(3-chlorobenzyl)-9-hydroxy-1,8-dioxo-1,3,4,8-tetrahydro-2H-pyrido[1,2-a]pyrazine-7-carboxamide], the IC50 lay in the range of 10 to 100 nM.

As to `Cn1cc2c(c(O)c1=O)C(=O)N(CCCc1c(F)cccc1Cl)CC2` [Example 122, 2-[3-(2-chloro-6-fluorophenyl)propyl]-8-hydroxy-6-methyl-2,3,4,6-tetrahydro-2,6-naphthyridine-1,7-dione], the concentration for half-maximal inhibition (IC50) is < 10 nM.

With `Cc1cn(Cc2cccc(F)c2)c(=O)c2c(O)c(=O)c(-c3ccccn3)cn12` [Example 407, 2-(3-fluorobenzyl)-9-hydroxy-4-methyl-7-(pyridin-2-yl)-2H-pyrido[1,2-a]pyrazine-1,8-dione hydrochloride], the IC50 fell in the range of 10 to 100 nM.

On to `O=C1c2c(O)c(=O)c(-c3ccncn3)cn2CCN1Cc1ccc(F)cc1` [Example 392, 2-(4-fluorobenzyl)-9-hydroxy-7-(pyrimidin-4-yl)-3,4-dihydro-2H-pyrido[1,2-a]pyrazine-1,8-dione hydrochloride], for which the 50% inhibitory concentration (IC50) fell in the range of 10 to 100 nM.

Regarding `O=c1c(-c2ccccc2)cn2c(CC3CCCCC3)cn(Cc3cccc(Cl)c3)c(=O)c2c1O` [Example 119, 2-(3-chlorobenzyl)-4-cyclohexylmethyl-9-hydroxy-7-phenyl-2H-pyrido[1,2-a]pyrazine-1,8-dione hydrochloride], the IC50 was in the range of 100 to 1000 nM.

On to `O=c1c(-c2ccncn2)cn2ccn(Cc3cccc(Cl)c3)c(=O)c2c1O` [Example 391, 2-(3-chlorobenzyl)-9-hydroxy-7-(pyrimidin-4-yl)-2H-pyrido[1,2-a]pyrazine-1,8-dione hydrochloride], for which the half-maximal inhibitory concentration (IC50) is 10 to 100 nM.

Turning to `O=C1c2c(O)c(=O)cc(CO)n2CCN1Cc1ccc(Cl)c(Cl)c1` [Example 5, 2-(3,4-dichlorobenzyl)-9-hydroxy-6-hydroxymethyl-3,4-dihydro-2H-pyrido[1,2-a]pyrazine-1,8-dione], the IC50 lay in the range of 10 to 100 nM.

In the case of `CN(C)c1ccc(CNC(=O)c2cn3c(c(O)c2=O)C(=O)N(Cc2ccc(F)cc2)CC3)cc1` [Example 415, N-(4-dimethylaminobenzyl)-2-(4-fluorobenzyl)-9-hydroxy.-1,8-dioxo-1,3,4,8-tetrahydro-2H-pyrido[1,2-a]pyrazine-7-carboxamide hydrochloride], the IC50 lay within 10 to 100 nM.

As for `CCN(C)C(=O)c1cc(=O)c(O)c2n1CCN(Cc1ccc(Cl)c(Cl)c1)C2=O` [Example 63, N-ethyl-N-methyl-2-(3,4-dichlorobenzyl)-9-hydroxy-1,8-dioxo-1,3,4,8-tetrahydro-2H-pyrido[1,2-a]pyrazine-6-carboxamide], the IC50 is < 10 nM.

Turning to `Cc1nn(Cc2cccc(Cl)c2)c(=O)c2c(O)c(=O)ccn12` [Example 162, 2-(3-chlorobenzyl)-9-hydroxy-4-methyl-2H-pyrido[1,2-d][1,2,4]triazine-1,8-dione hydrochloride], the IC50 fell in the range of 10 to 100 nM.

With `Cn1cc2c(c(O)c1=O)C(=O)N(Cc1ccc(Cl)c(Cl)c1)CC2` [Example 121, 2-(3,4-dichlorobenzyl)-8-hydroxy-6-methyl-2,3,4,6-tetrahydro-2,6-naphthyridine-1,7-dione], the IC50 is < 10 nM.

Regarding `COCc1c(-c2ccccn2)c(=O)c(O)c2n1CCN(Cc1ccc(F)cc1)C2=O` [Example 424, 2-(4-fluorobenzyl)-9-hydroxy-6-methoxymethyl-7-(pyridin-2-yl)-3,4-dihydro-2H-pyrido[1,2-a]pyrazine-1,8-dione hydrochloride], the IC50 lay within 10 to 100 nM.

For `O=C(O)CNC(=O)c1cn2ccn(Cc3cccc(Cl)c3)c(=O)c2c(O)c1=O` [Example 193, {[2-(3-chlorobenzyl)-9-hydroxy-1,8-dioxo-1,8-dihydro-2H-pyrido[1,2-a]pyrazine-7-carbonyl]amino}acetic acid], the IC50 fell in the range of 10 to 100 nM.

For the compound `O=C(NCc1cccc2ccccc12)c1cn2c(c(O)c1=O)C(=O)N(Cc1cccc(Cl)c1)CC2` [Example 269, N-(naphthalen-1-ylmethyl)-2-(3-chlorobenzyl)-9-hydroxy-1,8-dioxo-1,3,4,8-tetrahydro-2H-pyrido [1,2-a]pyrazine-7-carboxamide], the IC50 is < 10 nM.

Regarding `O=c1c(-c2ccncn2)cn2ccn(Cc3cccc(F)c3)c(=O)c2c1O` [Example 403, 2-(3-fluorobenzyl)-9-hydroxy-7-(pyrimidin-4-yl)-2H-pyrido[1,2-a]pyrazine-1,8-dione hydrochloride], the IC50 fell in the range of 10 to 100 nM.

Regarding `O=C1c2c(O)c(=O)c(-c3nccs3)cn2CCN1CCCc1cccc(Cl)c1F` [Example 312, 2-[3-(3-chloro-2-fluorophenyl)propyl]-9-hydroxy-7-(thiazol-2-yl)-3,4-dihydro-2H-pyrido[1,2-a]pyrazine-1,8-dione], the IC50 fell in the range of 10 to 100 nM.

As to `CC(C)(C)C(=O)c1cn2ccn(Cc3ccc(F)cc3)c(=O)c2c(O)c1=O` [Example 251, 7-(2,2-dimethylpropionyl)-2-(4-fluorobenzyl)-9-hydroxy-2H-pyrido[1,2-a]pyrazine-1,8-dione hydrochloride], the 50% inhibitory concentration (IC50) is < 10 nM.

Turning to `O=C1c2c(O)c(=O)c(-c3ccccn3)cn2CCN1Cc1ccc(F)cc1` [Example 363, 2-(4-fluorobenzyl)-9-hydroxy-7-(pyridin-2-yl)-3,4-dihydro-2H-pyrido[1,2-a]pyrazine-1,8-dione hydrochloride], the IC50 was in the range of 10 to 100 nM.

For `CC(C)(C)C(=O)Nc1cn2ccn(Cc3cccc(Cl)c3)c(=O)c2c(O)c1=O` [Example 276, N-[2-(3-chlorobenzyl)-9-hydroxy-1,8-dioxo-1,8-dihydro-2H-pyrido[1,2-a]pyrazin-7-yl]-2,2-dimethylpropionamide], the IC50 was < 10 nM.

Turning to `CC(C)(C(=O)Nc1cn2ccn(Cc3cccc(Cl)c3)c(=O)c2c(O)c1=O)c1ccccc1` [Example 277, N-[2-(3-chlorobenzyl)-9-hydroxy-1,8-dioxo-1,8-dihydro-2H-pyrido[1,2-a]pyrazin-7-yl]-2-phenylisobutyramide], the concentration for half-maximal inhibition (IC50) was < 10 nM.

For `CC(C)(C)C(=O)c1cn2c(c(O)c1=O)C(=O)N(CCCc1c(F)cccc1Cl)CC2` [Example 336, 2-[3-(2-chloro-6-fluorophenyl)propyl]-7-(2,2-dimethylpropionyl)-9-hydroxy-3,4-dihydro-2H-pyrido[1,2-a]pyrazine-1,8-dione], the IC50 was < 10 nM.
